From US9604926B2 (THE UNIVERSITY OF MISSISSIPPI, priority 2007, dated 2017)
Entries after “also recorded” stand apart in the source; their conditions may differ.

Legend:
[1] = Metabolic stability of AZ_66 in rat liver microsomes; assay type: in vitro ADME
Protocol: Metabolic stability of AZ_66 (1 μM) was performed in Ammonium acetate buffer (50 mM, pH 7.4) with Rat liver microsomes (0.5 mg) at 37° C. in 0.5 ml of incubation mixture. The incubation mixture composed of Ammonium acetate buffer (50 mM, pH 7.4), Magnesium chloride (3 mM), NADPH regenerating system consisting of NADP (1 mM), glucose-6-phosphate (5 mM), and glucose-6-phosphate dehydrogenase (1 Unit/mL). The Substrate and microsomes were pre incubated at 37° C. for 5 min before starting the reaction. The reactions were started by the addition of regenerating system and carried out at 37° C. in a shaking water bath for 60 min. The incubations were stopped by adding equal volume of ice cold acetonitrile at predetermined time points (0, 5, 15, 30, 60 min). The samples were centrifuged for 10 min at 4° C. and the supernatant was injected in to UPLC/MS/MS. Control incubation without NADPH was also performed and these served as 100% value. All microsomal incubations were conducted using the same lot of microsomes.
In vitro half-life and CLint: The percent of the parent compound remaining is plotted versus time. The slope of the line gives the rate constant k for the disappearance of parent compound, from which an in vitro t1/2 can be calculated. CLint can be calculated using the following formula
[formula] [V] is the incubation volume in μl and [P] is the amount of microsomal protein in the incubation.

[2] = biological target: σ-2 receptor (Rattus norvegicus (Rat), UniProt Q5U3Y7); assay: σ-2 receptor binding in rat brain homogenates ([3H]DTG plus (+)-pentazocine); details: read-out: Ki (nm) σ2; compound listing tables
σ-2 receptor, sequence (Q5U3Y7 whole entry): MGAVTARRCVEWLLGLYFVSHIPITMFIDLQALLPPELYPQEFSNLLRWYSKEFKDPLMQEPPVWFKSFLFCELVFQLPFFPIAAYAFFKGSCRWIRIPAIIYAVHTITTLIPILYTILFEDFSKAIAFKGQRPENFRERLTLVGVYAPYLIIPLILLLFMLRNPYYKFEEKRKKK
Protocol: Compounds were evaluated for σ-1 and σ-2 binding in rat brain homogenates. […] The assays were terminated with ice-cold 10 mM Tris-HCl, pH 8.0, followed by two washes through glass fiber filters that were pre-soaked for at least 30 min in 0.5% polyethyleneimine.

[3] = system: Swiss Webster mice; assay: Cocaine-induced convulsions; assay type: in vivo, mouse; details: i.p. pretreatment 15 min before cocaine 70 mg/kg i.p.
[4] = system: Swiss Webster mice; assay: Methamphetamine-induced locomotor activity; assay type: in vivo, mouse; details: i.p. pretreatment 15 min before methamphetamine 1 mg/kg i.p.
Protocol: (§1) Male, Swiss Webster mice were acclimated as detailed above. […] The total locomotor activity (ambulatory, fine and rearing movements) of the mice was recorded for the next 30 min as the number of disruptions made by them in the 16×16 photobeam grids surrounding their testing chambers.

[5] = system: Swiss Webster mice; assay: Cocaine-induced locomotor activity; assay type: in vivo, mouse; details: i.p. pretreatment 15 min before cocaine 20 mg/kg i.p.
Protocol: Male, Swiss Webster mice were acclimated to the treatment room and then to the chambers of the automated activity monitoring system (San Diego Instruments, San Diego, Calif.). […] The total locomotor activity (ambulatory, fine and rearing movements) of the mice was recorded for the next 30 min as the number of disruptions made by them in the 16×16 photobeam grid of their testing chamber.

[6] = system: Swiss Webster mice; assay: Methamphetamine-induced dopamine depletions; assay type: in vivo, mouse; details: methamphetamine 5 mg/kg x4 at 2 hr intervals, striatal dopamine one week later
Protocol: Male, Swiss Webster mice were injected (i.p.) with saline or compound (0-20 mg/kg), followed 15 min later with either saline (-METH) or methamphetamine (5 mg/kg) at 2 hr intervals, a total of four times. Striatal dopamine levels were measured one week later.

[7] = biological target: opioid receptors; assay: Non-σ competition binding, opioid receptors ([3H]bremazocine); details: rat brain homogenates
Protocol: (§2) Compounds were tested at various non-σ target sites to evaluate selectivity because cocaine interacts with these sites (dopamine, serotonin and norepinephrine transporters) or historic “sigma” ligands interact with them (opioid, NMDA, dopamine D2, 5-HT2 receptors). The compounds were tested in competition binding assays using rat brain homogenates as previously published. […] The results were reported as Ki in nM.

[8] = system: Swiss Webster mice; assay: Expression of cocaine-induced sensitization; assay type: in vivo, mouse; details: compound on Day 15 before cocaine 10 mg/kg i.p.
Protocol: Male, Swiss Webster mice were acclimated as detailed above. For five consecutive days (Days 1-5), the mice were pretreated (i.p) with saline, then challenged 15 min later with cocaine (10 mg/kg, i.p.). The total locomotor activity (ambulatory, fine and rearing movements) of the mice was recorded for the next 30 min. A 10 day drug free period followed and on Day 15, the mice were administered saline (i.p.) or compound (0.1-20 mg/kg), followed 15 min later with cocaine (10 mg/kg, i.p.). Locomotor activity was then recorded for the next 30 min.

[9] = Partition coefficient (Log P / Log D), shake-flask n-octanol and water/PBS; assay type: physicochemical; details: read-out: experimental Log P O/W±SD
Protocol: Using the Shake-flask method, 47 n-Octanol and water/PBS, pH 7.4 (equal quantity) were added to a glass vial (25 ml). […] Water/PBS, pH 7.4 phase was brought into a vessel together with a Teflon-coated magnetic stirring bar. The n-octanol phase containing the known quantity of test substance was poured very carefully on top of the aqueous phase in order to avoid emulsion formation as far as possible. […] The contents were allowed to separate on standing and then centrifuged. An aliquot of aqueous layer was taken and diluted (1000 times) for quantitative analysis by UPLC/MS/MS.

[10] = assay type: in vitro ADME
[11] = In vitro half-life in mouse liver microsomes; assay type: in vitro ADME
Protocol: The reaction was initiated by adding cofactors and quenched at designated time points (0, 5, 10, 15, 30, 45, 60 min) by addition of an equal volume of ice-cold acetonitrile (ACN). […].
The basic incubation mixture consisted of 5 mM substrate, 1 mg/mL microsomal protein, 3 mM MgCl2, 1 mM NADP, 5 mM glucose-6-phosphate, 1 IU/mL glucose-6-phosphate dehydrogenase, 100 mM Tris HCl buffer (pH 7.4) in a final volume of 1 mL. The reaction was initiated by adding cofactors and quenched at designated time points (0, 5, 10, 15, 30, 45, 60 min) by addition of an equal volume of ice-cold ACN. The mixture was centrifuged at 3000 rpm for 10 min, and the supernatant was analysed by UPLC/MS/MS.

[12] = system: Swiss Webster mice; assay: In vivo cocaine studies with CM304 (cocaine-induced convulsions); details: 0.001-10 mg/kg i.p. 15 min before cocaine 70 mg/kg i.p., hydrochloride
[13] = system: 59 targets (non-sigma); assay: NovaScreen and in-house profile of 59 targets; assay type: binding; details: nine targets
Protocol: Competition binding assays were performed as previously described. Briefly, radioligands were used to tag the targeted sites under standard conditions.

[14] = biological target: σ-1 receptor (Homo sapiens (Human), UniProt Q99720); details: literature, cited from earlier work
σ-1 receptor, sequence (Q99720 whole entry, species assumed): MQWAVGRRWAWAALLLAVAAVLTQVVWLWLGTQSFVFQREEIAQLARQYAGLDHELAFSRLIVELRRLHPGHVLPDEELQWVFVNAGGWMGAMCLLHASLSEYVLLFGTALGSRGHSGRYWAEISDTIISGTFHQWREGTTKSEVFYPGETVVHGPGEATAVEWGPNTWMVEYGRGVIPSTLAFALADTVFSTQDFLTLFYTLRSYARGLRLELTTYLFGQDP

[15] = biological target: NMDA receptors; assay: Non-σ competition binding, NMDA receptors ([3H]TCP); details: rat brain homogenates
Protocol: as §2

[16] = biological target: 5-HT2 receptors (Rattus norvegicus (Rat), UniProt P14842); assay: Non-σ competition binding, 5-HT2 receptors ([3H]ketanserin); details: rat brain homogenates
5-HT2 receptors, sequence (P14842 whole entry): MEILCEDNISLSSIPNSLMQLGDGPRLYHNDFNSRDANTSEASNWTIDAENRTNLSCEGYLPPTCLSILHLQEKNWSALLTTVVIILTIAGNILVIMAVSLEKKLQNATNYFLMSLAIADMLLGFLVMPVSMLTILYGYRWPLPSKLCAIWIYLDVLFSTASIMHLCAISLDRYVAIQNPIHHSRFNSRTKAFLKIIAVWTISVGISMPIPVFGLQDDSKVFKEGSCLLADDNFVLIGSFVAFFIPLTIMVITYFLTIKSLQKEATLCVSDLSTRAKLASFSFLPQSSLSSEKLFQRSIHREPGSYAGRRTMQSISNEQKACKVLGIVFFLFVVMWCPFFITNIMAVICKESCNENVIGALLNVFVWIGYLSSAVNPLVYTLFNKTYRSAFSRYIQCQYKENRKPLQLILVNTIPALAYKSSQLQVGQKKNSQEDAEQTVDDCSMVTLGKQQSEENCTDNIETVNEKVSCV
Protocol: as §2

[17] = system: Swiss Webster mice; assay: Development of cocaine-induced sensitization; assay type: in vivo, mouse; details: pretreatment Days 1-5, cocaine 10 mg/kg i.p., test Day 15
Protocol: as §1, with “of” for “surrounding”, “chamber on each of the five days. A 10 day drug-free period followed. On Day 15, all of the mice were pre-administered (i.p.) saline followed by cocaine (10 mg/kg, i.p.), and locomotor activity quantified for the next 30 min.” for “chambers.”

[18] = biological target: dopamine D2 receptors (Rattus norvegicus (Rat), UniProt P61169); assay: Non-σ competition binding, dopamine D2 receptors ([3H](−)-sulpiride); details: rat brain homogenates
dopamine D2 receptors, sequence (P61169 whole entry): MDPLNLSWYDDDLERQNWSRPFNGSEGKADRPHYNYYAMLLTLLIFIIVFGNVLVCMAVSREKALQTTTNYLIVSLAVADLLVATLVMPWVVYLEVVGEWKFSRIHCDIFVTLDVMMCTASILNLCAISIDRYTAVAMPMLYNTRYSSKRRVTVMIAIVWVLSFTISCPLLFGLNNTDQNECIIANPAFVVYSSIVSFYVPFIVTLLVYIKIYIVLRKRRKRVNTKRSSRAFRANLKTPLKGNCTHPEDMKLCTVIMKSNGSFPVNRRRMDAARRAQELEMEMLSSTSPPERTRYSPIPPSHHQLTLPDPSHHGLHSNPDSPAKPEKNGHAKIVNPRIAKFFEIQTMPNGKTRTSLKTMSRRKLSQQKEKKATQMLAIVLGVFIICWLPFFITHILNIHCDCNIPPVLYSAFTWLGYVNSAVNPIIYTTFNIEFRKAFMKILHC
Protocol: as §2

[19] = system: mouse brain; details: mice, literature; cited from earlier work
[20] = biological target: σ-1 receptor (CHO cells transfected with σ-1 receptor cDNA) (Homo sapiens (Human), UniProt Q99720); assay: Cell uptake studies in transfected CHO cells; details: 120 min
σ-1 receptor (CHO cells transfected with σ-1 receptor cDNA), sequence (Q99720 whole entry): as the sequence (Q99720 whole entry, species assumed) above
Protocol: Control CHO cells (transfected with a vector not containing the σ-1 receptor gene—to serve as a negative control) and CHO cells transfected with a vector containing σ-1 receptor cDNA (to serve as a positive control for σ-1 receptor expression in cells) were used for the uptake assays. […] The incubated cells were subsequently washed, lysed and counted for radioactivity. All collected data were normalized for amount of protein present in each well.
Cells CHO cells were grown in Ham's F-12 medium. For uptake studies CHO cells were transfected using Lipofectamine 2000 (Invitrogen, Carlsbad, Calif., USA) and either pcDNA (empty vector, negative control) or σ-1 receptor gene (OPRS1, accession number NM_005866.2, OriGene, Rockville, Md., USA) following manufacturers directions. […] Twenty-four hours later, CHO cells were transfected with either 0.8 μg pcDNA (empty vector, control), or 0.8 μg sigma-1 DNA. […] A portion of each lysate (250 μL) was transferred to a glass tube and activity was measured with a Cobra II γ counter (Packard-Perkin Elmer, Waltham, Mass., USA). Protein content from each well was measured by Bradford assay. The same protocol was followed for (+)-[^3H]pentazocine, except the activity was measured with a liquid scintillation counter (Beckman Coulter LS 6500, Brea, Calif., USA).

[21] = system: rat brain; details: literature; cited from earlier work

CC(CCCn1c(=O)sc2cc(F)ccc21)N1CCN(C2CCCCC2)CC1 (stereo not drawn) [AZ-66]
CLint whole liver ([1]; AZ_66 1 μM, rat): 0.002434 L/min
half-life at 1 μM ([1]; pH 7.4, rat liver microsomes, 1 μM, 0-30 min linear part, read-out: estimated t1/2 for disappearance): 116 ± 15 min
added substrate metabolized by 60 min ([1]; rat liver microsomes, 60 min): about 25%
microsomal CLint at 1 μM ([1]; rat, rat liver microsomes, pH 7.4, read-out: estimated CLint from microsomes): 6 µL/min/mg
Ki [2]: 1.76 ± 0.34 nM

S=c1sc2ccccc2n1CCCCN1CCN(C2CCCCC2)CC1 [CM156]
attenuation of cocaine-induced convulsions [3]: significant attenuation; also recorded: attenuates the convulsive effects of cocaine
attenuation of methamphetamine-induced locomotor activity [4]: attenuated the locomotor stimulant effects of methamphetamine; also recorded: attenuates methamphetamine-induced locomotor activity
attenuation of cocaine-induced locomotor activity [5]: significant attenuation; also recorded: attenuates cocaine-induced locomotor activity
attenuation of methamphetamine-induced dopamine depletions (neurotoxic effects) [6]: attenuated; also recorded: attenuates methamphetamine-induced dopamine depletions
Ki [7]: > 10 µM
attenuation of expression of cocaine-induced sensitization [8]: significant attenuation; also recorded: attenuates the expression of cocaine-induced sensitization

Cl.O=c1sc2cc(CCCF)ccc2n1CCN1CCCCCC1 [CM304, 3-(2-(azepan-1-yl)ethyl)-6-(3-fluoropropyl)benzo[d]thiazol-2(3H)-one hydrochloride]
logP [9]: -0.15 ± 0.05
clearance in rat liver microsomes [10]: 0.18 mL/min/g
clearance in mouse liver microsomes [11]: 0.55 mL/min/g
half-life at 5 mM ([11]; mouse, microsomes, pH 7.4): 4.2 min
attenuation of cocaine-induced convulsions by CM304 [12]: significantly attenuated cocaine-induced convulsions at all doses examined
displacement of the radioligand at 100 nM ([13]; 100 nM screening concentration): < 20%
displacement of the radioligand at 10,000 nM ([13]; 10,000 nM screening concentration): > 50%

CCCc1ccc2c(c1)sc(=O)n2CCN1CCCCC1 [SN56]
Selectivity Ratio for the σ-1 receptor (reported) [14]: > 1000
Ki ([14]; read-out: Ki at σ-1 receptor (reported)): 0.56 nM

CC(=O)c1ccc2c(c1)oc(=O)n2CCCCN1CCN(c2ccc(F)cc2)CC1.Cl.Cl [SN-79]
attenuation of cocaine-induced convulsions [3]: significant attenuation; also recorded: attenuates the convulsive effects of cocaine
attenuation of cocaine-induced locomotor activity [5]: significant attenuation; also recorded: attenuates cocaine-induced locomotor activity
Ki [15]: > 10 µM
Ki [7]: > 10 µM
Ki [16]: 320 ± 16 nM
attenuation of development of cocaine-induced sensitization [17]: significant attenuation; also recorded: attenuates the development of cocaine-induced sensitization
Ki [18]: > 10 µM
attenuation of expression of cocaine-induced sensitization [8]: attenuates the expression of cocaine-induced sensitization

O=C(Cc1ccccc1F)NC1CCN(Cc2ccc([18F])cc2)CC1 [[^18F]FBFPA, N-[^18F]4′-fluorobenzylpiperidin-4yl-(2-fluorophenyl) acetamide, reference compound]
affinity for σ-2 receptor/σ-1 receptor (reported) [14]: 44

COc1cc(CCN2CCN(CCCc3ccccc3)CC2)ccc1OC[18F] [[^18F]FM-SA4503]
time of maximum uptake in the brain [19]: 30 minutes post injection

O=c1sc2cc(CCC[18F])ccc2n1CCN1CCCCCC1 [[^18F]FTC-146, 6-(3-fluoropropyl)-3-(2-(azapan-1-yl)ethyl)benzo[d]thiazol-2(3H)-one]
uptake in cells transfected with σ-1 receptor cDNA versus control CHO cells [20]: 4 fold

N#Cc1ccc(OCC2CCN(CC[18F])CC2)cc1 [[^18F]SFE]
reduction in peak uptake in rat brain over a 90 min period [21]: 40%

[17F]CCC1OC2(CCN(Cc3ccccc3)CC2)c2ccccc21 (stereo not drawn) [[^18F]fluspidine]
brain level at 60 minutes post injection relative to maximum (reported) [19]: 81 % of its maximum
